Measurements reported in EP2246331A1, “NR2B-selective NMDA-receptor antagonists” (Westfälische Wilhelms-Universität Münster, priority 2009, dated 2010).

How the values were obtained:
[1] = molecular target: T1, polyamine binding site of the NR2B subunit of the NMDA receptor (Homo sapiens, UniProt Q05586+Q13224); test: Filtration-based receptor binding assay with [3H]-Ifenprodil as radioligand; conditions: 5 nM [3H]-Ifenprodil; membrane homogenates of mouse L(tk-) cells transfected with NR1-1a/NR2B; 180 min at 37 °C; Ki mean of three experiments ± S.E.M.; read-out: affinity to the NR2B binding site of the NMDA receptor
T1 construct: expressed in transfected cells; host or cells: mouse L(tk-) cells, dexamethasone-induced; gift from D. Steinhilber, University of Frankfurt
Description: Mouse L(tk-) cells stably transfected with the dexamethasone-inducible eukaryotic expression vectors pMSG NR1-1a, pMSG NR2B in a 1:5 ratio were a generous gift from D. Steinhilber (Department of Pharmacy, University of Frankfurt, Germany). The transformed L(tk-) cells were grown in Modified Earl's Medium (MEM) containing 10% of standardized FCS (Biochrom AG, Berlin, Germany). The expression of the NMDA receptor at the cell surface was induced after the cell density of the adherent growing cells had reached approximately 90% of confluency. For the induction, the original growth medium was replaced by growth medium containing 4 µM dexamethasone and 4 µM ketamine (final concentration). After 24 h the cells were harvested by trypsination and pelleted (10 min, 5,000 x g, Hettich Rotina 35R centrifuge, Tuttlingen, Germany).
For the binding assay, the cell pellet was resuspended in PBS buffer and the number of cells was determined using an improved Neubauer's counting chamber (VWR, Darmstadt, Germany). Subsequently, the cells were lysed by sonication (4 °C, 6 x 10 s cycles with breaks of 10 sec). The resulting cell fragments were centrifuged with a high performance cool centrifuge (20,000 x g, 4 °C, Sorvall RC-5 plus, Thermo Scientific). The supernatant was discarded and the pellet resuspended in a defined volume of phosphate buffer saline (PBS) yielding cell fragments of approximately 500,000 cells/mL. The suspension of membrane homogenates was sonicated again (4 °C, 2 x 10 s cycles with a break of 10 min) and stored at -80 °C.
The cell membrane suspension was added last. All experiments were carried out in triplicates. The incubation was terminated by rapid filtration through filtermats using a cell harvester (MicroBeta FilterMate-96 Harvester, Perkin Elmer). Prior to harvesting, the filtermats were presoaked in 0.5% aqueous polyethylenimine for 2 h at room temperature. After washing each well five times with 300 µL of water, the filtermats were dried at 95 °C. Subsequently, the solid scintillator was placed on the filtermat and melted at 95 °C. After 5 min, the solid scintillator was allowed to solidify at room temperature. The bound radioactivity trapped on the filters was counted in the scintillation analyzer (Microbeta Counter, Perkin Elmer). The overall counting efficiency was 20%.
The protein concentration was determined by the method of Bradford, modified by Stoscheck. The Bradford solution was prepared by dissolving 5 mg of Coomassie Brilliant Blue G 250 in 2.5 mL EtOH (95%, v/v). 10 mL deionized H2O and 5 mL phosphoric acid (85%, m/v) were added to this solution, the mixture was stirred and filled up to a total volume of 50.0 mL with deionized water. The calibration was carried out using bovine serum protein as a standard in concentrations between 0.1 and 10 mg /L. In a 96-well standard multiplate, 10 µL of the calibration solution or 10 µL of the membrane receptor preparation were mixed with 190 µL of the Bradford solution, respectively.
Kd and Bmax were calculated as described in the "Data analysis" section.
Data analysis was performed with Graph Pad Prism® Software, Version 3.0 (Graph Pad Software Inc., San Diego, CA, USA).
Saturation analyses were made by nonlinear regression using the "one-site-saturation" calculation method. The IC50 values of the test compounds used in the competitive binding experiments were determined by nonlinear regression using the "one-site-competition" calculation method. […] The Ki values are given as mean values from three independent experiments ± Standard Error of the Mean (S.E.M).

σ2 receptor = molecular target: T2, σ2 receptor (Rattus norvegicus, UniProt Q5U3Y7); test: Receptor binding assay with [3H]-ditolylguanidine on rat liver membranes; conditions: 3 nM [3H]-ditolylguanidine with 2 µM (+)-pentazocine, 180 min at room temperature, mean ± SEM, read-out: affinity to the σ2 receptor
T2 construct: tissue Harlan Winkelmann; host or cells: rat liver membranes
T2 sequence (Q5U3Y7 1-176): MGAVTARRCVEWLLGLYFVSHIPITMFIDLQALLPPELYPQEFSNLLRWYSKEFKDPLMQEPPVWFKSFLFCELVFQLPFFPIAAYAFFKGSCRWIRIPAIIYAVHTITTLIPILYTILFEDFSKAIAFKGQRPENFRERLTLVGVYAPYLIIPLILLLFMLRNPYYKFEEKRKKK
Description: (§1) The pig brains were a donation of the local slaughterhouse (Coesfeld, Germany). Homogenizer: Elvehjem Potter (B. Braun Biotech International, Melsungen, Germany). Centrifuge: High-speed cooling centrifuge model Sorvall RC-5C plus (Thermo Fisher Scientific, Langenselbold, Germany). Filter: Printed Filtermat Typ A and B (Perkin Elmer LAS, Rodgau-Jügesheim, Germany), presoaked in 0.5% aqueous polyethylenimine for 2 h at room temperature before use. […] Before filling to the final volume of 1000 mL, the pH of the solution was adjusted to pH=7.5 by dropwise addition of 1M HCl. The filtration was carried out with a MicroBeta FilterMate-96 Harvester (Perkin Elmer). The scintillation analysis was performed using Meltilex (Typ A or B) solid scintillator (Perkin Elmer). The solid scintillator was melted on the filtermat at a temperature of 95 °C for 5 minutes. After solidifying of the scintillator at room temperature, the scintillation was measured using a MicroBeta Trilux scintillation analyzer (Perkin Elmer). The overall counting efficiency was 20 %. All experiments were carried out in triplicates using standard 96-well-multiplates (Diagonal, Muenster, Germany). […] The Ki-values are given as mean value ± SEM from three independent experiments.
Determination of affinity to the σ2 receptor
Two rat livers (Harlan Winkelmann, Borchen, Germany) were cut into smaller pieces and homogenized with the potter (500-800 rpm, 10 up-and-down strokes) in 6 volumes of cold 0.32 M sucrose. The suspension was centrifuged at 1200 x g for 10 min at 4 °C. The supernatant was separated and centrifuged at 31000 x g for 20 min at 4 °C. The pellet was resuspended in 5-6 volumes of buffer (50 mM TRIS, pH 8.0) and incubated at room temperature for 30 minutes. After the incubation, the suspension was centrifuged again at 31000 x g for 20 min at 4 °C. The final pellet was resuspended in 5 to 6 volumes of buffer, the protein concentration was determined according to the method of Bradford using bovine serum albumin as standard, and subsequently the preparation was frozen (-80 °C) in 1.5 mL portions containing about 2 mg protein/mL.
(50 Ci/mmol; ARC). […] The incubation was terminated by rapid filtration through the presoaked filtermats using a cell harvester. After washing each well five times with 300 µL of water, the filtermats were dried at 95 °C. Subsequently, the solid scintillator was placed on the filtermat and melted at 95 °C. The bound radioactivity trapped on the filters was counted in the scintillation analyzer as described in the "General procedures" section.

σ1 receptor = molecular target: T3, σ1 receptor (Cavia porcellus, UniProt Q60492); test: Receptor binding assay with [3H]-(+)-pentazocine on guinea pig brain membranes; conditions: 2 nM [3H]-(+)-pentazocine, guinea pig brain membranes; for Ki: 180 min at 37 °C, mean ± SEM, read-out: affinity to the σ1 receptor
T3 construct: tissue Harlan Winkelmann; host or cells: guinea pig brain membranes
Description: as §1
Determination of the affinity to the σ1 receptor
Five guinea pig brains (Harlan Winkelmann, Borchen, Germany) were homogenized with the potter (500-800 rpm, 10 up-and-down strokes) in 6 volumes of cold 0.32 M sucrose. The suspension was centrifuged at 1200 x g for 10 min at 4 °C. […] This procedure was repeated twice. The final pellet was resuspended in 5 to 6 volumes of buffer, the protein concentration was determined according to the method of Bradford using bovine serum albumin as standard, and subsequently the preparation was frozen (-80 °C) in 1.5 mL portions containing about 1.5 mg protein/mL.
The test was performed with the radioligand [^3H]-(+)-pentazocine (42,5 Ci/mmol; Perkin Elmer). […] The incubation was terminated by rapid filtration through the presoaked filtermats using a cell harvester. After washing each well five times with 300 µl of water, the filtermats were dried at 95 °C. The bound radioactivity trapped on the filters was counted in the scintillation analyzer as described in the "General procedures" section. The non-specific binding was determined with 10 µM unlabeled (+)-pentazocine.

[2] = molecular target: phencyclidine binding site of the NMDA receptor; conditions: radioligand constant; T. Utech, Dissertation, 2003, Universität Freiburg; cited from earlier work

T1 sequence (Q13224 27-1484, other chains not shown): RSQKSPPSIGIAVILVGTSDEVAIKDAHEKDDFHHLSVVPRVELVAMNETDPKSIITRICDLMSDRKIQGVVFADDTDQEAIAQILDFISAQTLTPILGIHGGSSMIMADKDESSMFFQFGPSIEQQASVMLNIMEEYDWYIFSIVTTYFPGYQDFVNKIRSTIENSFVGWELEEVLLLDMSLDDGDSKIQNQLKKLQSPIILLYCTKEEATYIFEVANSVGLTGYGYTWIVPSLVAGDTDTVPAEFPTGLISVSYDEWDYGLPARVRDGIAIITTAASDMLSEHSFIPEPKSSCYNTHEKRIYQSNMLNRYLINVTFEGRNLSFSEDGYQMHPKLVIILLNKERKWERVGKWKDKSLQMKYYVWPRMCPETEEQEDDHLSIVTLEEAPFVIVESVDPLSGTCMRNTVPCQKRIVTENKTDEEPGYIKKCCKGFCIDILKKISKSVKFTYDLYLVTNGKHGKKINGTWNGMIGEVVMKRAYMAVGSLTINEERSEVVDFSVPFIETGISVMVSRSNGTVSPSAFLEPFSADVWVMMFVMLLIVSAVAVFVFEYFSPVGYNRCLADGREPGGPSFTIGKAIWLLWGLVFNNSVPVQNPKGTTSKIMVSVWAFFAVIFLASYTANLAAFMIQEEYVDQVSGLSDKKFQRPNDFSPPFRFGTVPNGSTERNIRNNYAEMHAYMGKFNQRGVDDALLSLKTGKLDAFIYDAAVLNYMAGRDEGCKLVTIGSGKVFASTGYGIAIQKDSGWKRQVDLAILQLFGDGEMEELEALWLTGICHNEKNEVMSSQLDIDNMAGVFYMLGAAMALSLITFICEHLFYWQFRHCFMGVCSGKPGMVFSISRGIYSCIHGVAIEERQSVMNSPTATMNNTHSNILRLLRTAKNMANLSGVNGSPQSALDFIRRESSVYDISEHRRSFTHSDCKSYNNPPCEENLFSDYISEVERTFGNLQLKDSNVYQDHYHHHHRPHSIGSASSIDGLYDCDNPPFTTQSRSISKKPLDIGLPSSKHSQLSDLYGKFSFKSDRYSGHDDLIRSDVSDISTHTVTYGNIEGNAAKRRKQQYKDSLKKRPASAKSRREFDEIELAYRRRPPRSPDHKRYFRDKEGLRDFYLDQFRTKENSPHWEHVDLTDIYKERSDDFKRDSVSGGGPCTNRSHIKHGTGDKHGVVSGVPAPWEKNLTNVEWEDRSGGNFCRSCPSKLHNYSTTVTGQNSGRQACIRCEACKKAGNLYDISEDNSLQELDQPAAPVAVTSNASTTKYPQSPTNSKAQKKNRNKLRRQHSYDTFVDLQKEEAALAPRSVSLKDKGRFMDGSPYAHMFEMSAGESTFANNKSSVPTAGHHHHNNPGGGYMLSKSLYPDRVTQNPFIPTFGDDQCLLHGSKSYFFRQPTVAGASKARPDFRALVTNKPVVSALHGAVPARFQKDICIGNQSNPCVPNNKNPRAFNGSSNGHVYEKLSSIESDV
T3 sequence (Q60492 whole entry): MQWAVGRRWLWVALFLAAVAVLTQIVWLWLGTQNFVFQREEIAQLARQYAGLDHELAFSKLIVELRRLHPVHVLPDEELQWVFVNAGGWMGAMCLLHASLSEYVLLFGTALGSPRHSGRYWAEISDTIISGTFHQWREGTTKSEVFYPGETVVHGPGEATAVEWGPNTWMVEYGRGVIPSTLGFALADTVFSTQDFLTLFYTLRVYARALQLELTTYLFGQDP

| Compound | Ki [1] [nM] | Ki (σ2 receptor) [nM] | Ki (σ1 receptor) [nM] | inhibition of the σ1 receptor only at concentrations above (σ1 receptor; given as above 1 µM or 10 µM) | Kd [2] [nM] |
| --- | --- | --- | --- | --- | --- |
| OC1CN(C2CCC3(CC2)OCCO3)CCc2cc(OCc3ccccc3)ccc21 (stereo not shown) [formula (25)] | 1.12 | 753 | 183 | – | – |
| O=C(c1ccccc1)N1CCC(N2CCc3cc(O)ccc3C(O)C2)CC1 (stereo not shown) [formula (26)] | 393 | 97.7 | – | above 1 µM | – |
| C[C@@H]1[C@H](O)c2ccc(O)cc2CCN1CCCCc1ccccc1 [formula (27)] | 12.3 | 142 | 85.5 | – | – |
| C[C@H]1[C@@H](O)c2ccc(O)cc2CCN1CCCCc1ccccc1 [formula (28)] | 22.1 | 103 | 393 | – | – |
| (+)-MK-801 | – | – | – | – | 2.26 |
